For nine molecules, inhibition and IC50 results are on record in patent US9029386B2, “Pyridine derivatives useful as kinase inhibitors” (YM Biosciences Australia Pty Ltd, priority 2006, dated 2015).

The target of one experiment is T1, Flt1(h) (Homo sapiens, UniProt P17948).
T1 construct: purchased Upstate Biotechnology (Dundee, UK), KinaseProfiler service
Kind of experiment: KinaseProfiler assay (Upstate), Flt1. Format: biochemical. The protocol: (§1) Further enzyme assays were conducted at Upstate Biotechnology (Dundee, UK) in the KinaseProfiler™ Assay system.
(§2) The general protocol is as follows. All kinases are pre-diluted to a 10× working concentration prior to addition into the assay. The composition of the dilution buffer for the kinases is 20 mM MOPS pH 7.0, 1 mM EDTA, 0.1% β-mercaptoethanol, 0.01% Brij-35, 5% glycerol, 1 mg/ml BSA. All substrates are dissolved and diluted to working stocks in de-ionised water.
In a final reaction volume of 25 Flt1 (h) (5-10 mU) is incubated with 8 mM MOPS pH 7.0, 0.2 mM EDTA, 250 μM […], 10 mM MgAcetate and [γ-33P-ATP] (specific activity approx. 500 cpm/pmol, concentration as required). The reaction is initiated by the addition of the MgATP mix. After incubation for 40 minutes at room temperature, the reaction is stopped by the addition of 5 μl of a 3% phosphoric acid solution. 10 μl of the reaction is then spotted onto a P30 filtermat and washed three times for 5 minutes in 75 mM phosphoric acid and once in methanol prior to drying and scintillation counting.

In the next experiment the target is T2, PDGFR β tyrosine kinase (Homo sapiens, UniProt P09619).
T2 construct: purchased Upstate Cell Signalling Solutions, CA, USA 14-463
T2 sequence (P09619 33-1106): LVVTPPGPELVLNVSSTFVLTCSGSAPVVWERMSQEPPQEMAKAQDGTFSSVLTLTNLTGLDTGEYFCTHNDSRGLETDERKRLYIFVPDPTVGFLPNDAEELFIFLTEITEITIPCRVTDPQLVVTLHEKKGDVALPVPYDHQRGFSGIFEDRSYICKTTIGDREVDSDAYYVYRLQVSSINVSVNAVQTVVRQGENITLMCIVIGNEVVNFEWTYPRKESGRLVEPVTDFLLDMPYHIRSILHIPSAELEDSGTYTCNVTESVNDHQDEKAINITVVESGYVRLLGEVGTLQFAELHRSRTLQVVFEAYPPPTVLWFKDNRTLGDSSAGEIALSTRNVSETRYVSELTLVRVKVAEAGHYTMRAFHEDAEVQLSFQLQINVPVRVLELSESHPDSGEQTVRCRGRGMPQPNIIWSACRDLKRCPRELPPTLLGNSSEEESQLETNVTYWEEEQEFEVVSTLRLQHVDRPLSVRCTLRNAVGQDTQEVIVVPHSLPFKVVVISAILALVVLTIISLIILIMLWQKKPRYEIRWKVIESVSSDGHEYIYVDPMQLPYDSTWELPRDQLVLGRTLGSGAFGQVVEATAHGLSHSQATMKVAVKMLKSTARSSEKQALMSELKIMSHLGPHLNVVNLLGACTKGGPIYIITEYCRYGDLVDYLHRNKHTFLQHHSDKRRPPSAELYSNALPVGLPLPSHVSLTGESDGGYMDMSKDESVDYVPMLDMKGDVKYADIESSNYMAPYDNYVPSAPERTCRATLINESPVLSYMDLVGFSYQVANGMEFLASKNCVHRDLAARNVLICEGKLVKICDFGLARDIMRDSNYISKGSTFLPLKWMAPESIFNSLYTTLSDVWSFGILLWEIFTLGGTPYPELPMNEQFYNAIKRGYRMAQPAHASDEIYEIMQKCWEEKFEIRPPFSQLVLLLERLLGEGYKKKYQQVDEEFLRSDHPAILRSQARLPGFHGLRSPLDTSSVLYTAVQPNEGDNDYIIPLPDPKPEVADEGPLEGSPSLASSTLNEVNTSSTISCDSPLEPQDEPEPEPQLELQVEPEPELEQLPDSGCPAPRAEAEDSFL
Kind of experiment: Alphascreen protein tyrosine kinase assay, PDGFRβ. Format: biochemical. (In Alpha technology, singlet oxygen from a donor bead excites a nearby acceptor bead.)

The target of another experiment is T3, Hck(h) (Homo sapiens, UniProt P08631).
T3 construct: purchased Upstate Biotechnology (Dundee, UK), KinaseProfiler service
T3 sequence (P08631 whole entry): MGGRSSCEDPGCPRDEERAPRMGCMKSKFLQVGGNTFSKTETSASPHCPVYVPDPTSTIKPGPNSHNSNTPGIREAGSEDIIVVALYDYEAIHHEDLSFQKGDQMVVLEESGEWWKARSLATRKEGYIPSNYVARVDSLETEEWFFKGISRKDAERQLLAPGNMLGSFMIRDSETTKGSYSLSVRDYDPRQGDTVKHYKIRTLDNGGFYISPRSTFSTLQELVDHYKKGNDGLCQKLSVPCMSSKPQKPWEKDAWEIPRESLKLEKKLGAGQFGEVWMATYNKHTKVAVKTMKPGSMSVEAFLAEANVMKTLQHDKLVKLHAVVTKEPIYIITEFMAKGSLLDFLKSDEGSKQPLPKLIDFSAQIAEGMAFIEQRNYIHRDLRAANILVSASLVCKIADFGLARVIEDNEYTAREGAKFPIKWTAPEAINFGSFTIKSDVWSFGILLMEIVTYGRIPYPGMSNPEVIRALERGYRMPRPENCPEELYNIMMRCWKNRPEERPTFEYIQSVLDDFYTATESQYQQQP
Kind of experiment: KinaseProfiler assay (Upstate), Hck. In kind it is biochemical. The protocol: as §1, §2
In a final reaction volume of 25 μl, Hck (h) (5-10 mU) is incubated with 8 mM MOPS pH 7.0, 0.2 mM EDTA, 250 μM […] (Cdc2 peptide), 10 mM MgAcetate and [γ-33P-ATP] (specific activity approx. 500 cpm/pmol, concentration as required). The reaction is initiated by the addition of the MgATP mix. After incubation for 40 minutes at room temperature, the reaction is stopped by the addition of 5 μl of a 3% phosphoric acid solution. 10 μl of the reaction is then spotted onto a P30 filtermat and washed three times for 5 minutes in 75 mM phosphoric acid and once in methanol prior to drying and scintillation counting.

Experiment [1] has as its target T4, kinase domain of human c-kit (Homo sapiens, UniProt P10721).
T4 construct: from codon M552 to end; made in house; host or cells: Sf9 insect cells (baculovirus)
The experiment can be described thus: Alphascreen protein tyrosine kinase assay, c-KIT. In kind it is biochemical. On the procedure:
For screening purposes, compounds were diluted in 96 well plates at a concentration of 20 μM. Plates were warmed at 37° C. for 30 minutes before assay.
The kinase domain of human c-kit from codon M552 to end was cloned into the pDEST-20 expression vector (Invitrogen). The c-kit plasmid was then transformed into competent DH10Bac cells (Gibco), and the recombinant baculovirus produced prepared for transfection into Sf9 insect cells.
Baculovirus preparations from each of construct were infected into five liters of SF9 cells (Invitrogen) grown in SF-900 medium (Invitrogen) to a cell density of approximately 1−2×10^6 cells/ml. […] Cells were harvested and lysed. Tyrosine kinase domains were purified by affinity chromatography on a glutathione-agarose column (Scientifix Pty. Ltd. catalog #: GSH-200).
Kinase assays were performed in 384 well Optiplates (Packard) using an Alphascreen Protein Tyrosine Kinase kit. […] Alphascreen phosphotyrosine acceptor beads followed by streptavidin donor beads were added under subdued light. The Alphascreen plates were read on a Packard Fusion Alpha. Inhibitors were added to the assays thirty minutes prior to the addition of ATP. Inhibitors were added in aqueous DMSO, with DMSO concentrations never exceeding 1%.

Another experiment concerns Baf3-WT. Kind of experiment: Cellular assay (Alamar Blue), Baf3-WT with mouse IL-3. The following applies: mouse IL-3 at 5 ng/ml, 72 hr. In kind it is cell-based. On the procedure: Cells for the assays were prepared by harvesting cells from culture, and then diluting them in the appropriate growth medium to between 40,000 cell/mL and 600,000 cell/mL, depending on the cell line.
The compounds to be tested were added (104, 10× final concentration) to a flat bottomed 96-well plate. The cellular suspension (80 μL per well) was added, and one hour later the growth factor was added (human M-CSF at 20 ng/ml for mNFS-60, mouse IL-3 at 5 ng/ml for Baf3-WT). The plate was then incubated for 72 hr at 37° C., 5% CO2. Alamar Blue (10^4 per well) was added and the plates returned to the incubator for a further 4-8 hours.
The plates were then read using a fluorescence plate reader at excitation 544 nm and emission 590 nm.
(In general: Alamar Blue is a resazurin reagent that responds to reducing activity.)

For the next experiment, the target named is T5, FLT-3 tyrosine kinase (Homo sapiens, UniProt P36888).
T5 construct: purchased Upstate Cell Signalling Solutions, CA, USA 14-500
T5 sequence (P36888 27-993): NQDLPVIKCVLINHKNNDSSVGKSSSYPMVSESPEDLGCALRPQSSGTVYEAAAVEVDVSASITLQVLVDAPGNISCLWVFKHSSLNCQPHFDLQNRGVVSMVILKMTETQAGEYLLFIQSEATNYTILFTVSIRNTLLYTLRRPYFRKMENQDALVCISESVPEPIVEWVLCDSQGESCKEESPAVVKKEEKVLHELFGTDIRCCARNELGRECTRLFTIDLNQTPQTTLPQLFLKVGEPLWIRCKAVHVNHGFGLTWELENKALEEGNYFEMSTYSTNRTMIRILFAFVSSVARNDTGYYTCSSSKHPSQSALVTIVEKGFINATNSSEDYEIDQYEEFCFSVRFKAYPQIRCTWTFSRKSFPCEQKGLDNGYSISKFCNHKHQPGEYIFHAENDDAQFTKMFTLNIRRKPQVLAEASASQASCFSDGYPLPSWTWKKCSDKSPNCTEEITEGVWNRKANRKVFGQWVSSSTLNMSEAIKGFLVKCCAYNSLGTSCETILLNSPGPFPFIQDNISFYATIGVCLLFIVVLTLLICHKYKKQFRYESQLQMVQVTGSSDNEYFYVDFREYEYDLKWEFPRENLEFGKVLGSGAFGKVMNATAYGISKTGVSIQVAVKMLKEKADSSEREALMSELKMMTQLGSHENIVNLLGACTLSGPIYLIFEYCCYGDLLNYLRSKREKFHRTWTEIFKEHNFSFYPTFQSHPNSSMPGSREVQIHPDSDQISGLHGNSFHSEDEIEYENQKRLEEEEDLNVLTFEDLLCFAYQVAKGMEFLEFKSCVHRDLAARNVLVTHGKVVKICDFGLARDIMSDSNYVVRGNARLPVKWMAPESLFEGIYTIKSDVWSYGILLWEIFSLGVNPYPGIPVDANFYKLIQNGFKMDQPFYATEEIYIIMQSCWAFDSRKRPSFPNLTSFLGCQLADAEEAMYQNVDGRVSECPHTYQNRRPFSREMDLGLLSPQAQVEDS
Kind of experiment: Alphascreen protein tyrosine kinase assay, FLT-3. Format: biochemical. The following applies: read-out: Flt3.

T4 sequence (P10721 552-976 limits assumed): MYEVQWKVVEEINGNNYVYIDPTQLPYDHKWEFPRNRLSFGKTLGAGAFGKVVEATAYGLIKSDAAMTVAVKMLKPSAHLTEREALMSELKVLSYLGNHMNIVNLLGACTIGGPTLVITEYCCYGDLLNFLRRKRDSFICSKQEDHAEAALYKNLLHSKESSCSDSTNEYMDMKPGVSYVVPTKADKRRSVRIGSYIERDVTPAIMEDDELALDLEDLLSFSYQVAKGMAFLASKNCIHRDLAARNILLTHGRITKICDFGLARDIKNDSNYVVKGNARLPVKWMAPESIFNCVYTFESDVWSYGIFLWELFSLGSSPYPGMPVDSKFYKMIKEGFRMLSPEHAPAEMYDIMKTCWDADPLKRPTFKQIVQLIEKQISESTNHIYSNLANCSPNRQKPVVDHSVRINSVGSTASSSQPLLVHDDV
T1 sequence (P17948 27-1338): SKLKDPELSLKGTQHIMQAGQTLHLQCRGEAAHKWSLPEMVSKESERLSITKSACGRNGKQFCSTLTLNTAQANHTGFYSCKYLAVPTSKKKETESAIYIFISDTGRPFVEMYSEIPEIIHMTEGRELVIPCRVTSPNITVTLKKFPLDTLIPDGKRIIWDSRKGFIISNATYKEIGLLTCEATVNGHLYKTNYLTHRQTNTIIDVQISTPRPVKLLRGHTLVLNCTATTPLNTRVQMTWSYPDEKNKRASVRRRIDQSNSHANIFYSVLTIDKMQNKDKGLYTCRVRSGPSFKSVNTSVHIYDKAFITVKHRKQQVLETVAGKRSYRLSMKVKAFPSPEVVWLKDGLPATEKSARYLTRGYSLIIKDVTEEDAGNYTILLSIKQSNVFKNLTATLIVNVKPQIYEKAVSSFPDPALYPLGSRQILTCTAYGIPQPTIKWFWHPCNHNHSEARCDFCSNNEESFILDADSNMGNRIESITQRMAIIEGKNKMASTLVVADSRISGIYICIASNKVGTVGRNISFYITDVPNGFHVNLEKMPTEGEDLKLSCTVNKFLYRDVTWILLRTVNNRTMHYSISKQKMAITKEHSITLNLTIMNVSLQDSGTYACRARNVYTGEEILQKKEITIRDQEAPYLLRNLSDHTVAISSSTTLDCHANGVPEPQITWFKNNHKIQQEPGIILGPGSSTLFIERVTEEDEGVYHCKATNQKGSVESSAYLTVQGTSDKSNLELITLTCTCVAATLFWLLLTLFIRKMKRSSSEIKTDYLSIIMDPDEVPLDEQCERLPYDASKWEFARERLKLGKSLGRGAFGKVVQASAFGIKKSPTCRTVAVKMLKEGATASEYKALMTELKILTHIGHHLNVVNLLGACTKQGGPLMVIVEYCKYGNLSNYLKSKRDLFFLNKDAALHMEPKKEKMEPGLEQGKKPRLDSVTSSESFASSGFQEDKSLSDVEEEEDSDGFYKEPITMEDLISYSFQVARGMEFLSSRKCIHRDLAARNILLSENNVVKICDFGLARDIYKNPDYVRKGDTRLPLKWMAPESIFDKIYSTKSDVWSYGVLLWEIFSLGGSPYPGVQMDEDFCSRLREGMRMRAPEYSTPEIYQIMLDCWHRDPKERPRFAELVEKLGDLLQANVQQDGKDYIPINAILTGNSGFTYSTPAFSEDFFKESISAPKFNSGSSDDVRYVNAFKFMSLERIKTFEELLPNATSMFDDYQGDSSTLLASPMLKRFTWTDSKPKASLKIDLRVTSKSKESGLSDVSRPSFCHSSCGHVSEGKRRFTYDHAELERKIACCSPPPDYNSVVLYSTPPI

What is called inhibition is the change of the read-out against control, counted positive when it falls. `C[C@H](Nc1cncc(-c2ccc(N3CCN(C)CC3)cc2)n1)c1cccc(NC(=O)c2cccc(C(F)(F)F)c2)c1` [Compound 148]: the inhibition at 0.1 µM on Flt1(h) is 92%; at Hck(h), 96%. The inhibition at 1 µM at Flt1(h) and against Hck(h) was 99% throughout. The IC50 against PDGFR β tyrosine kinase is below 0.1 µM; in experiment [1] it was below 0.1 µM; in the experiment on Baf3-WT it was below 10 µM.

As for `Cc1cccc(C(=O)Nc2cccc([C@H](C)Nc3cncc(C(N)=O)n3)c2)c1` [Compound 133, (S)-6-(1-(3-(3-methylbenzamido)phenyl)ethylamino)pyrazine-2-carboxamide], the inhibition at 0.1 µM came out at 92% at Flt1(h) and 23% against Hck(h). In addition, the inhibition at 1 µM came out at 99% against Flt1(h) and 84% against Hck(h). Besides, the IC50 against PDGFR β tyrosine kinase was below 0.1 µM; in experiment [1], below 0.1 µM; in the experiment with Baf3-WT it was above 10 µM.

For the molecule `Cc1cccc(C(=O)Nc2cccc([C@H](C)Nc3cncc(-c4ccc(N5CCN(C)CC5)cc4)n3)c2)c1` [Compound 129], the inhibition at 0.1 µM against Flt1(h) was found to be 96%; against Hck(h), 84%. Moreover, the inhibition at 1 µM against Flt1(h) turned out to be 100%; against Hck(h) it was 99%. For the same molecule, the IC50 is below 0.1 µM against PDGFR β tyrosine kinase, below 0.1 µM in experiment [1] and below 10 µM with Baf3-WT.

On to `C[C@H](Nc1cncc(-c2cccc(N3CCOCC3)c2)n1)c1cccc(NC(=O)c2cccc(C(F)(F)F)c2)c1` [Compound 149], for which the inhibition at 0.1 µM on Flt1(h) amounted to 56%; against Hck(h), 94%. Also, the inhibition at 1 µM on Flt1(h) was 99%; on Hck(h) it was 100%. Moreover, the IC50 against PDGFR β tyrosine kinase was below 0.1 µM; in experiment [1], below 1 µM; in the experiment on Baf3-WT, above 10 µM.

On to `Cc1cccc(C(=O)Nc2cccc([C@H](C)Nc3cncc(-c4ccc(S(N)(=O)=O)cc4)n3)c2)c1` [Compound 77], for which the IC50 is above 10 µM on FLT-3 tyrosine kinase, below 1 µM against PDGFR β tyrosine kinase, below 0.1 µM in experiment [1] and above 10 µM in the experiment with Baf3-WT. In addition, the results for the inhibition at 0.1 µM at Flt1(h) and against Hck(h) were 98% and 64%, respectively. The inhibition at 1 µM is 100% at Flt1(h) and 95% on Hck(h).

With `C[C@H](Nc1cncc(Cl)n1)c1cccc(NC(=O)c2cccc(C(F)(F)F)c2)c1` [Compound 114, (S)—N-(3-(1-(6-chloropyrazin-2-ylamino)ethyl)phenyl)-3-(trifluoromethyl)benzamide], the inhibition at 0.1 µM on Flt1(h) was found to be 85%; against Hck(h), 74%. Besides, the figures for the inhibition at 1 µM against Flt1(h) and against Hck(h) were 99% and 102%, respectively. For the same molecule, the IC50 was below 0.1 µM against PDGFR β tyrosine kinase, below 1 µM in experiment [1] and above 10 µM in the experiment with Baf3-WT.

In the case of `Cc1cccc(C(=O)Nc2cccc([C@H](C)Nc3cncc(-c4cccc(N5CCOCC5)c4)n3)c2)c1` [Compound 147], the results for the inhibition at 0.1 µM against Flt1(h) and against Hck(h) were 95% and 90%, respectively. The inhibition at 1 µM against Flt1(h) and against Hck(h) was 100% throughout. In addition, the IC50 at PDGFR β tyrosine kinase is below 0.1 µM; in experiment [1] it was below 0.1 µM; in the experiment on Baf3-WT, above 10 µM.

Consider `Cc1cccc(C(=O)Nc2ccc(C)c([C@H](C)Nc3cncc(Cl)n3)c2)c1` [Compound 168], for which, on Flt1(h), the inhibition at 0.1 µM was 91% and the inhibition at 1 µM was found to be 100%. For the same molecule, on Hck(h), the inhibition at 0.1 µM worked out at 96% and the inhibition at 1 µM amounted to 101%.

As to `Cc1cccc(C(=O)Nc2cccc([C@H](C)Nc3cncc(-n4ccnc4)n3)c2)c1` [Compound 143, (S)—N-(3-(1-(6-(1H-imidazol-1-yl)pyrazin-2-ylamino)ethyl)phenyl)-3-methylbenzamide], the inhibition at 0.1 µM against Flt1(h) is 90%; against Hck(h) it was 55%. Moreover, the inhibition at 1 µM amounted to 96% against Flt1(h) and 82% on Hck(h). The IC50 is below 0.1 µM against PDGFR β tyrosine kinase, below 0.1 µM in experiment [1] and below 10 µM in the experiment on Baf3-WT.
